Laboratory results from patent publication US7732568B2, “Methods for preventing and treating Alzheimer's disease” (AFFIRIS Forschungs-und Entwicklungs GmbH, priority 2003, dated 2010).
Entries after “also recorded” stand apart in the source; their conditions may differ. Where no end group is shown, it is not given here.

B1: Peptide 1235 DRELRI (peptide)
peptide: DRELRIC
B2: Peptide 1238 DKELR (peptide)
peptide: DKELRC
B3: Peptide 1241 DWEFRDA (peptide)
peptide: DWEFRDAC

Legend:
[1] = test system: biotinylated monoclonal antibody specific for DAEFRH (natural N-terminal Aβ42 sequence); experiment: Inhibition assay for additional mimotopes (competition ELISA), Example 4 (FIGS. 4 and 5); assay type: binding, mice; conditions: for inhibition of binding of the monoclonal antibody to the original epitope (in words) / IC50 of inhibition of monoclonal antibody recognition of the original epitope: FIGS. 4 and 5; for Inhibitory capacity of mimotopes (Table 2): summary grade: strong, intermediate, weak, none; for IC50 of inhibition of monoclonal antibody recognition of the original epitope: plate-bound DAEFRH-BSA 0.1 μg/ml, peptides at different concentrations, 20 min, 37° C.
Protocol: (§1) FIGS. 4 and 5 describe the results of inhibition assays performed with mimotope peptides included in and obtained from the 5 libraries (as described). The mimotope peptides compete with the original epitope for recognition by the monoclonal antibody. Original epitope and mimotope peptides contain an additional C at the C-terminus (position 7) for coupling to a protein carrier (if desired).
(§2) After blocking with PBS/BSA 1% (200 μl/well, 12 h, 4° C.), the plates are washed 3× times with PBS/Tween. Then, biotinylated monoclonal antibody (1:2000, 50 μl/well) and peptides (50 μl/well) at different concentrations are added for 20 min. at 37° C. The plates are washed 3× times with PBS/Tween and are incubated with horseradish peroxidase (HRP)-labeled streptavidin (100 μl/well, 30 min, RT). The plates are washed 5× times with PBS/Tween and are incubated with ABTS H2O2 (0.1% w/v, 10 to 45 min) and the reaction is stopped with citric acid followed by photometric evaluation (wavelength 405 nm).

[2] = test system: biotinylated monoclonal antibody specific for DAEFRH (natural N-terminal Aβ42 sequence); experiment: Inhibition assay (competition ELISA): mimotope peptides compete with plate-bound DAEFRH-BSA for the monoclonal antibody, Example 3 (FIGS. 2 and 3); assay type: binding, mice; conditions: for inhibition of binding of the monoclonal antibody to the original epitope (in words): peptides at 50 to 0.0005 μg/ml, FIGS. 2 and 3; for Inhibitory capacity of mimotopes (Table 1): summary grade: strong, intermediate, weak, none
Protocol: as §1, with “FIGS. 2” for “FIGS. 4”, “and 3” for “and 5”, “C-terminus” for “C-terminus (position 7)”
as §2, with “50, 5, 0.5, 0.05, 0.005, and 0.0005 μg/ml” for “different concentrations”, “ABTS+H2O2” for “ABTS H2O2”

[3] = test system: biotinylated DAEFRH-specific mAb; experiment: ELISA with peptide libraries: detection of mimotopes by the DAEFRH-specific mAb; assay type: binding, mice; conditions: mimotopes from peptide libraries 1, 2 and 3
Protocol: The ELISA with each of the peptide libraries have been carried out following standard protocols:
The peptide library is dissolved in 100% DMSO (final concentration 10 mg/ml).
The peptide solution is further diluted in PBS.
The peptide mixture is coated overnight (4° C.) onto ELISA plates (Nunc Maxisorp, Germany), starting with 500 μg/well, and titrated to 100 ng/well.
The plates are washed 3× times with PBS/Tween 20 (0.1% v/v).
The plates are blocked with PBS/BSA (2 h at room temperature).
The plates are washed 3× times with PBS/Tween.
The plates are incubated with biotinylated DAEFRH-specific mAb (DAEFRH sequence disclosed as SEQ ID NO: 1) (10 μg/ml in PBS) for 4 h at room temperature.
The plates are incubated with streptavidin-horseradish-peroxidase (30 min at room temperature).
The plates are washed 5× times with PBS/Tween.
The plates are incubated with ABTS+H2O2 (0.1% w/v; 10 to 45 min) and the reaction is stopped with citric acid followed by photometric evaluation (wavelength 405 nm).

[4] = molecular target: DAEFRH-specific monoclonal antibody (mAb) produced according to example 1; experiment: competition ELISA: soluble peptide vs plate-bound DAEFRH-C-BSA for biotinylated mAb, FIG. 5

Molecule	inhibition of binding of the monoclonal antibody to the original epitope (in words) [1]	inhibition of binding of the monoclonal antibody to the original epitope (in words) [2]	Inhibitory capacity of mimotopes (Table 1) [2]	other results
CC[C@H](C)[C@H](NC(=O)[C@H](CCCNC(=N)N)NC(=O)[C@H](CC(C)C)NC(=O)[C@H](CCC(=O)O)NC(=O)[C@H](CCCNC(=N)N)NC(=O)[C@@H](N)CC(=O)O)C(=O)N[C@@H](CS)C(=O)O [Peptide 1235, DRELRI]	block epitope recognition			Inhibitory capacity of mimotopes (Table 2) [1]: strong
CC[C@H](C)[C@H](NC(=O)[C@H](CCCCN)NC(=O)[C@H](CC(C)C)NC(=O)[C@H](CCC(=O)O)NC(=O)[C@H](CCCCN)NC(=O)[C@@H](N)CC(=O)O)C(=O)N[C@@H](CS)C(=O)O [Peptide 1236, DKELKI]	block epitope recognition			Inhibitory capacity of mimotopes (Table 2) [1]: weak
CC[C@H](C)[C@H](NC(=O)[C@H](CCCCN)NC(=O)[C@H](CC(C)C)NC(=O)[C@H](CCC(=O)O)NC(=O)[C@H](CCCNC(=N)N)NC(=O)[C@@H](N)CC(=O)O)C(=O)N[C@@H](CS)C(=O)O [Peptide 1237, DRELKI]	block epitope recognition			Inhibitory capacity of mimotopes (Table 2) [1]: weak
N=C(N)NCCC[C@H](NC(=O)[C@H](Cc1ccccc1)NC(=O)[C@H](CCC(=O)O)NC(=O)[C@H](Cc1ccc(O)cc1)NC(=O)[C@@H](N)CCC(=O)O)C(=O)NCC(=O)N[C@@H](CS)C(=O)O [Peptide 1239, EYEFRG]	block epitope recognition			IC50 of inhibition of monoclonal antibody recognition of the original epitope [1]: more than 0.5 μg/ml; Inhibitory capacity of mimotopes (Table 2) [1]: intermediate
C[C@H](NC(=O)[C@H](CC(=O)O)NC(=O)[C@H](CCCNC(=N)N)NC(=O)[C@H](Cc1ccccc1)NC(=O)[C@H](CCC(=O)O)NC(=O)[C@H](Cc1c[nH]c2ccccc12)NC(=O)[C@@H](N)CC(=O)O)C(=O)N[C@@H](CS)C(=O)O [Peptide 1241, DWEFRDA]	block epitope recognition			Inhibitory capacity of mimotopes (Table 2) [1]: strong
CC[C@H](C)[C@H](NC(=O)[C@H](CCCNC(=N)N)NC(=O)[C@H](CC(C)C)NC(=O)[C@H](CCC(=O)O)NC(=O)[C@H](CCCCN)NC(=O)[C@@H](N)CC(=O)O)C(=O)N[C@@H](CS)C(=O)O [Peptide 3001, DKELRI]		block epitope recognition	strong	
CC[C@H](C)[C@H](NC(=O)[C@H](CCCNC(=N)N)NC(=O)[C@H](CC(C)C)NC(=O)[C@H](CCC(=O)O)NC(=O)[C@H](Cc1c[nH]c2ccccc12)NC(=O)[C@@H](N)CC(=O)O)C(=O)N[C@@H](CS)C(=O)O [Peptide 3002, DWELRI]		block epitope recognition	intermediate	
C[C@H](NC(=O)[C@@H](N)Cc1ccc(O)cc1)C(=O)N[C@@H](CCC(=O)O)C(=O)N[C@@H](Cc1ccccc1)C(=O)N[C@@H](CCCNC(=N)N)C(=O)NCC(=O)N[C@@H](CS)C(=O)O [Peptide 3005, YAEFRG]		block epitope recognition	intermediate	
C[C@H](NC(=O)[C@@H](N)CCC(=O)O)C(=O)N[C@@H](CCC(=O)O)C(=O)N[C@@H](Cc1ccccc1)C(=O)N[C@@H](CCCNC(=N)N)C(=O)NCC(=O)N[C@@H](CS)C(=O)O [Peptide 3006, EAEFRG]		block epitope recognition	strong	
N=C(N)NCCC[C@H](NC(=O)[C@H](Cc1ccccc1)NC(=O)[C@H](CCC(=O)O)NC(=O)[C@H](Cc1ccc(O)cc1)NC(=O)[C@@H](N)CC(=O)O)C(=O)NCC(=O)N[C@@H](CS)C(=O)O [Peptide 3007, DYEFRG]		block epitope recognition	strong	
CC(C)C[C@H](NC(=O)[C@@H](N)CCC(=O)O)C(=O)N[C@@H](CCC(=O)O)C(=O)N[C@@H](Cc1ccccc1)C(=O)N[C@@H](CCCNC(=N)N)C(=O)NCC(=O)N[C@@H](CS)C(=O)O [Peptide 3008, ELEFRG]			weak	
N=C(N)NCCC[C@H](NC(=O)[C@H](Cc1ccccc1)NC(=O)[C@H](CCC(=O)O)NC(=O)[C@H](Cc1ccccc1)NC(=O)[C@@H](N)CO)C(=O)NCC(=O)N[C@@H](CS)C(=O)O [Peptide 3009, SFEFRG]			weak	
C[C@@H](O)[C@H](NC(=O)[C@H](CCCNC(=N)N)NC(=O)[C@H](Cc1ccccc1)NC(=O)[C@H](CCC(=O)O)NC(=O)[C@H](Cc1c[nH]c2ccccc12)NC(=O)[C@@H](N)CO)C(=O)N[C@@H](CS)C(=O)O [Peptide 4002, SWEFRT]	block epitope recognition			IC50 of inhibition of monoclonal antibody recognition of the original epitope [1]: less than 0.4 μg/ml; Inhibitory capacity of mimotopes (Table 2) [1]: strong
DAEFRH (not fully specified (C-terminus)) [Peptide 1737, reference compound]	inhibits recognition by the monoclonal antibody; also recorded: can successfully compete	inhibits recognition by the monoclonal antibody; also recorded: can successfully compete		
DIDYHR				detection by the monoclonal antibody produced according to example 1 [3]: can be detected
DIDYRR [DLDYRR (SEQ ID NO: 97)]				detection by the monoclonal antibody produced according to example 1 [3]: can be detected
DIGWRG [Peptide 3011]		not inhibitory at the concentrations tested	none	

Molecule	inhibition of binding of the monoclonal antibody to the original epitope (in words) [1]	inhibition of binding of the monoclonal antibody to the original epitope (in words) [2]	Inhibitory capacity of mimotopes (Table 1) [2]	other results
DISFRG [Peptide 3010]		not inhibitory at the concentrations tested	none	
DLDYHR				detection by the monoclonal antibody produced according to example 1 [3]: can be detected
DLDYRR [DLDYRR (SEQ ID NO: 98)]				detection by the monoclonal antibody produced according to example 1 [3]: can be detected
DVDYHR				detection by the monoclonal antibody produced according to example 1 [3]: can be detected
DVDYRR				detection by the monoclonal antibody produced according to example 1 [3]: can be detected
EIDYHR				detection by the monoclonal antibody produced according to example 1 [3]: can be detected
ELDYHR				detection by the monoclonal antibody produced according to example 1 [3]: can be detected
EVDYHR				detection by the monoclonal antibody produced according to example 1 [3]: can be detected
GREFRN [Peptide 4003]	block epitope recognition			concentration at which the peptide is only inhibitory ([1]; FIG. 4): 10 µg/mL; Inhibitory capacity of mimotopes (Table 2) [1]: weak
KKELRI [Peptide 1234]	hardly inhibitory at the concentrations tested			Inhibitory capacity of mimotopes (Table 2) [1]: none
WHWSWR [Peptide 4004]	not able to inhibit binding of the monoclonal antibody to the original epitope			Inhibitory capacity of mimotopes (Table 2) [1]: none
YREFFI [Peptide 3003]		not able to inhibit binding of the monoclonal antibody to the original epitope	none	
YREFRI [Peptide 3004]		block epitope recognition	weak	concentration at which the peptide is only inhibitory ([2]; FIG. 2): 50 µg/mL
B1				IC50 [4]: < 0.5 µg/mL
B2				IC50 [4]: < 0.5 µg/mL
B3				IC50 [4]: < 0.5 µg/mL
